Assay results taken from patent publication US8865206B1, “Surface modified multilayered nanostructures for dermal delivery” (Florida A&M University, priority 2010, dated 2014).

What was measured:
Type in all cases: physicochemical
[1] = In vitro drug release through porous membrane, Franz diffusion cells; conditions: within 24 hours of NPS application; 0.5% w/v Volpo in PBS (pH 7.4), 32° C.
Protocol: In vitro drug release studies of KP-NPS, SP-NPS, SP+KP-NPS, KP-NPS-OA, SP-NPS-OA and SP+KP-NPS-OA were performed to investigate the amount of drug released from NPS or NPS-OA. A porous membrane of MWCO at 50,000 Da (SIGMA-ALDRICH Co., St. Louis, Mo.) was used. The membrane was mounted between the donor and receiver compartments of Franz diffusion cells (N. Ghouchi Eskandar, S. Simovic, C. Prestidge, Nanoparticle coated submicron emulsions: sustained in-vitro release and improved dermal delivery of All-trans-retinol, Pharm Res, 26 (2009) 1764-1775).
The NPS dispersion was applied evenly on the surface of the membrane in the donor compartment. […] At predetermined time intervals (e.g., 1, 2, 4, 6, 8, 12, 22, 24, 48 and 72 hours), 0.5 ml samples were collected from the receiver compartment and replaced with fresh buffer solution. The samples collected from receiver compartment were analyzed for drug content using the HPLC method.

[2] = Entrapment efficiency using vivaspin columns; conditions: in NPS; unaffected by surface modification
Protocol: The NPS and NPS-OA (0.5 ml) were placed on top of the vivaspin centrifuge filter membrane and centrifuged at 4,500 rpm for fifteen (15) minutes. The amount of SP and KP present in the aqueous phase was estimated using HPLC.

[3] = Solubility test in selected receiver fluids

release of drug from NPS [1] [%] | entrapment efficiency [2] | solubility ([3]; 0.1% w/v Volpo 20 in PBS (pH 7.4), 1 mg/ml) | solubility ([3]; 0.5% w/v Volpo 20 in PBS (pH 7.4), 1 mg/ml) | solubility ([3]; 5% w/v BSA in PBS (pH 7.4)) | solubility ([3]; SP and KP mixed together in PBS (pH 7.4) containing 10% w/v ethanol) | solubility ([3]; ethanol) | Molecule
> 75 |  |  |  |  |  |  | CC(C(=O)O)c1cccc(C(=O)c2ccccc2)c1 (centres unmarked) [KP, Ketoprofen]
34 | 92.81%±2.17 | insoluble | soluble | soluble | precipitation was observed | soluble | Spantide II
